The values below come from BindingDB's records for doi:10.1016/j.ejmech.2016.03.076 (Chinese Academy of Sciences (Cas), 2016).

A short description of assay [1]: Inhibition of c-Met in human MKN45 cells assessed as reduction in cell proliferation after 72 hrs by SRB or MTT assay. On the technique in general: Formazan colour is commonly taken as a measure of viable cells.
Assay [2] is described as follows: Inhibition of c-Met in human EBC-1 cells assessed as reduction in cell proliferation after 72 hrs by SRB or MTT assay.
Assay [3] is described as follows: Inhibition of TPR-MET in mouse BAF3 cells assessed as reduction in cell proliferation after 72 hrs by SRB or MTT assay.

Take `Fc1ccc(-c2cnc3nnc(C(F)(F)c4ccc5ncccc5c4)n3n2)cc1`: the IC50 in assay [1] worked out at 0.46 nM; in assay [2], 0.85 nM.

For `Cn1cc(-c2ccc3nnc(C(F)(F)c4ccc5ncccc5c4)n3n2)cn1` [US9062045, Comparator No. 1 (JNJ-38877605)], the IC50 in assay [3] is 8.6 nM; in assay [1], 9.5 nM; in assay [2], 5.5 nM.

What is called IC50 is the concentration needed to halve the response being measured.
